EC50 data for 2 molecules are collected here from paper PMC5814754, “Quantitative, Wide-Spectrum Kinase Profiling in Live Cells for Assessing the Effect of Cellular ATP on Target Engagement” (Cell Chemical Biology, 2018).

Read-outs that look alike come from different tables or passages of the source. A value given as a limit tells only on which side of the number the result lay.

What all share (test): Apparent affinity (EC50) of energy transfer probes by titration onto live HEK293 cells expressing kinase/Nluc fusions (Table S1)
Type in all cases: binding

Test [1] concerns the target full-length kinase/Nluc fusion proteins (Homo sapiens, UniProt P51956). As to conditions: NEK3, Nluc N; read-out: Probe EC50.
Test [2] deals with full-length kinase/Nluc fusion proteins (Homo sapiens, UniProt Q02763). As to conditions: TEK (NP_000450), Nluc orientation C; read-out: Probe EC50.
Test [3] has as its target full-length kinase/Nluc fusion proteins (Homo sapiens, UniProt Q14164). The settings on record: IKBKE, Nluc N; read-out: Probe EC50.
Test [4] has as its target full-length kinase/Nluc fusion proteins (Homo sapiens, UniProt Q9BYT3). As to conditions: STK33 (NP_001275990), Nluc orientation N; read-out: Probe EC50.
In test [5] the target is full-length kinase/Nluc fusion proteins (Homo sapiens, UniProt Q06418). The settings on record: TYRO3 (NP_006284), Nluc orientation C; read-out: Probe EC50.
Test [6] has as its target full-length kinase/Nluc fusion proteins (Homo sapiens, UniProt P45983). The settings on record: read-out: Probe EC50.
In test [7] the target is full-length kinase/Nluc fusion proteins (Homo sapiens, UniProt Q13131). The settings on record: PRKAA1, Nluc N; read-out: Probe EC50.
For test [8], the target named is full-length kinase/Nluc fusion proteins (Homo sapiens, UniProt P36888). The settings on record: FLT3, Nluc C; read-out: Probe EC50.
Test [9] has as its target full-length kinase/Nluc fusion proteins (Homo sapiens, UniProt Q9H1R3). As to conditions: MYLK2, Nluc C; read-out: Probe EC50.
For test [10], the target named is full-length kinase/Nluc fusion proteins (Homo sapiens, UniProt Q13237). As to conditions: PRKG2, Nluc C; read-out: Probe EC50.
Test [11] has as its target full-length kinase/Nluc fusion proteins (Homo sapiens, UniProt Q96GD4). The settings on record: AURKB, Nluc C; read-out: Probe EC50.
Test [12] has as its target full-length kinase/Nluc fusion proteins (Homo sapiens, UniProt Q9NYY3). The settings on record: PLK2, Nluc N; read-out: Probe EC50.
Test [13] concerns the target full-length kinase/Nluc fusion proteins (Homo sapiens, UniProt Q9Y463). As to conditions: DYRK1B, Nluc N; read-out: Probe EC50.
Test [14] addresses full-length kinase/Nluc fusion proteins (Homo sapiens, UniProt P31749). As to conditions: AKT1, Nluc C; read-out: Probe EC50.
For test [15], the target named is full-length kinase/Nluc fusion proteins (Homo sapiens, UniProt Q9UHD2). The settings on record: TBK1 (NP_037386), Nluc orientation N; read-out: Probe EC50.
Sequence of full-length kinase/Nluc fusion proteins (Homo sapiens, UniProt Q9UHD2) (Q9UHD2 whole entry, the tested form may be a part): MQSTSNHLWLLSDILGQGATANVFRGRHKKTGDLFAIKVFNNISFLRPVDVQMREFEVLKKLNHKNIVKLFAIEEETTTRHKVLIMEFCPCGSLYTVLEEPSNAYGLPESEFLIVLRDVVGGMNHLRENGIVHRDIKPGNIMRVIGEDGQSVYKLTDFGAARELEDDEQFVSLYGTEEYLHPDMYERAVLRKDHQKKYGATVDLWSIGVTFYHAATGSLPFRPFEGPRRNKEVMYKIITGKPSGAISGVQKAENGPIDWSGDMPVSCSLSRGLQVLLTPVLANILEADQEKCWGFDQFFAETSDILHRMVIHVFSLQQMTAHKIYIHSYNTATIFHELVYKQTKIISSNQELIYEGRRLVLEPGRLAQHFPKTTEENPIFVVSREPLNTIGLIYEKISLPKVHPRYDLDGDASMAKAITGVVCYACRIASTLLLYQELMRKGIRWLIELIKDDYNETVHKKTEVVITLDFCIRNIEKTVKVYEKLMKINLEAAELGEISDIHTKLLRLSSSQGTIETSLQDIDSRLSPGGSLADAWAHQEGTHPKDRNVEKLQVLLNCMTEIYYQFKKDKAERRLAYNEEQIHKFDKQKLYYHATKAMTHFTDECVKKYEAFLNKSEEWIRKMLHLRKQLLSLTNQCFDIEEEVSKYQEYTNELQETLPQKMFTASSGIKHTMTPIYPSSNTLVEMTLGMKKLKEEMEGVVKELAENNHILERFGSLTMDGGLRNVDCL
For test [16], the target named is full-length kinase/Nluc fusion proteins (Homo sapiens, UniProt P28482). The settings on record: MAPK1, Nluc N; read-out: Probe EC50.
Test [17] concerns the target full-length kinase/Nluc fusion proteins (Homo sapiens, UniProt O75385). As to conditions: ULK1 (NP_003556), Nluc orientation N; read-out: Probe EC50.
In test [18] the target is full-length kinase/Nluc fusion proteins (Homo sapiens, UniProt Q9UM73). As to conditions: ALK, Nluc C; read-out: Probe EC50.
Test [19] has as its target full-length kinase/Nluc fusion proteins (Homo sapiens, UniProt P30530). As to conditions: AXL, Nluc C; read-out: Probe EC50.
Test [20] addresses full-length kinase/Nluc fusion proteins (Homo sapiens, UniProt P22455). As to conditions: FGFR4, Nluc C; read-out: Probe EC50.
Test [21] has as its target full-length kinase/Nluc fusion proteins (Homo sapiens, UniProt O76039). The settings on record: CDKL5, Nluc N; read-out: Probe EC50.
The target in test [22] is full-length kinase/Nluc fusion proteins (Homo sapiens, UniProt P06213). The settings on record: INSR, Nluc C; read-out: Probe EC50.
The target in test [23] is full-length kinase/Nluc fusion proteins (Homo sapiens, UniProt P08581). As to conditions: MET, Nluc C; read-out: Probe EC50.
Sequence of full-length kinase/Nluc fusion proteins (Homo sapiens, UniProt P08581) (P08581 25-1390): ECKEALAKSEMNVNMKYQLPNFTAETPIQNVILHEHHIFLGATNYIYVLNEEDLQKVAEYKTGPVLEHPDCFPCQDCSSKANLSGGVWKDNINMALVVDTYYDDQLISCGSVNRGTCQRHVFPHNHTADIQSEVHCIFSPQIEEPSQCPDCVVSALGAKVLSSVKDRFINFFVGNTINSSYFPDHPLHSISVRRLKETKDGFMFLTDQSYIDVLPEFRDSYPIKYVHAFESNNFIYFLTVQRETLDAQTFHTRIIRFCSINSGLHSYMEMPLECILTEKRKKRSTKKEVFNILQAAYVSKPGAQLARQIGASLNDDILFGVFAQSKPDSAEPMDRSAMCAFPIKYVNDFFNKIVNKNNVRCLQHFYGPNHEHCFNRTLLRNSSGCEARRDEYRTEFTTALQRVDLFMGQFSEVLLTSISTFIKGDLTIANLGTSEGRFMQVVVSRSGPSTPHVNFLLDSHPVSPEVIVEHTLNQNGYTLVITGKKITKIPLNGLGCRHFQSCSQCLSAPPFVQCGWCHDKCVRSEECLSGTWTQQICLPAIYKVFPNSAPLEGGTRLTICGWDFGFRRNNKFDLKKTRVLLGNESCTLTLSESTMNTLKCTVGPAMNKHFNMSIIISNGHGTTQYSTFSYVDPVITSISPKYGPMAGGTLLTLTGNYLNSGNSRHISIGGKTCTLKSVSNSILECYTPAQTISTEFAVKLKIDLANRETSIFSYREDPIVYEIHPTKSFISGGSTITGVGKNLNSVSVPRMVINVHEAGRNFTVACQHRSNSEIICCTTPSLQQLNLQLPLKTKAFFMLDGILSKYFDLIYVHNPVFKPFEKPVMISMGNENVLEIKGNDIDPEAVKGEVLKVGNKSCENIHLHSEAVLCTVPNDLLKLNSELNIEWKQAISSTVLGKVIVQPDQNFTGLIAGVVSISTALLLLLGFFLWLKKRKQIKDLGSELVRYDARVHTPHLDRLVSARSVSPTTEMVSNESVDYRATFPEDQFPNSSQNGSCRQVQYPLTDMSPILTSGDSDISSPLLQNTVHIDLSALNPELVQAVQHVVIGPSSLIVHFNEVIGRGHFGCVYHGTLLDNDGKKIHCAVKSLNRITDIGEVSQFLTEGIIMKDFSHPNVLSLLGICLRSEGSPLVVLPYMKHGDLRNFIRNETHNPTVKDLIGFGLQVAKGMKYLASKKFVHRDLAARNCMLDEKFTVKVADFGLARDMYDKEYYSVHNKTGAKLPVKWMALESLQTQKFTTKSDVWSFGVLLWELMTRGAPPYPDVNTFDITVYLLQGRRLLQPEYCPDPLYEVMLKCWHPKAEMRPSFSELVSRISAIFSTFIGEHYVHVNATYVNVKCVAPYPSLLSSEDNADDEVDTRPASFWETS
The target in test [24] is full-length kinase/Nluc fusion proteins (Homo sapiens, UniProt P42685). The settings on record: FRK, Nluc C; read-out: Probe EC50.
Sequence of full-length kinase/Nluc fusion proteins (Homo sapiens, UniProt P42685) (P42685 whole entry, the tested form may be a part): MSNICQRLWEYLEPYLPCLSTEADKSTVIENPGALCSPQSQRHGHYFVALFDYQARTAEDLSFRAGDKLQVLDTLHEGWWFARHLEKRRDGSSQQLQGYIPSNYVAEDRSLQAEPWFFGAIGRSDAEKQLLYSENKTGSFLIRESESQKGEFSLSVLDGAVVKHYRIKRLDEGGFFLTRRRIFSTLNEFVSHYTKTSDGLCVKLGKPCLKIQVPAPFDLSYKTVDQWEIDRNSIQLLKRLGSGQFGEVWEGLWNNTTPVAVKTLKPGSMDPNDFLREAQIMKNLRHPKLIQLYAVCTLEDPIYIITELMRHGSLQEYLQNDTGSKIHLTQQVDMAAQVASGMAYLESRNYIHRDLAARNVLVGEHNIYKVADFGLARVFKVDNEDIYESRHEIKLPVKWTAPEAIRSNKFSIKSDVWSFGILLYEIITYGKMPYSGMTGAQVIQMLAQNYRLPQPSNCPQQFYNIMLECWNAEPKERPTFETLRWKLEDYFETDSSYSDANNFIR
The target of test [25] is full-length kinase/Nluc fusion proteins (Homo sapiens, UniProt P29322). As to conditions: EPHA8, Nluc C; read-out: Probe EC50.
Test [26] addresses full-length kinase/Nluc fusion proteins (Homo sapiens, UniProt P07948). The settings on record: LYN, Nluc C; read-out: Probe EC50.
The target of test [27] is full-length kinase/Nluc fusion proteins (Homo sapiens, UniProt P41240). The settings on record: CSK, Nluc C; read-out: Probe EC50.
For test [28], the target named is full-length kinase/Nluc fusion proteins (Homo sapiens, UniProt O43353). As to conditions: RIPK2 (NP_003812), Nluc orientation N; read-out: Probe EC50.
Test [29] addresses full-length kinase/Nluc fusion proteins (Homo sapiens, UniProt P53671). The settings on record: LIMK2, Nluc C; read-out: Probe EC50.
Test [30] concerns the target full-length kinase/Nluc fusion proteins (Homo sapiens, UniProt P42681). The settings on record: TXK (NP_003319), Nluc orientation C; read-out: Probe EC50.
Test [31] concerns the target full-length kinase/Nluc fusion proteins (Homo sapiens, UniProt Q9H0K1). As to conditions: SNF1LK2 (NP_056006), Nluc orientation N; read-out: Probe EC50.
Test [32] has as its target full-length kinase/Nluc fusion proteins (Homo sapiens, UniProt P12931). The settings on record: SRC (NP_005408), Nluc orientation C; read-out: Probe EC50.

Sequence of full-length kinase/Nluc fusion proteins (Homo sapiens, UniProt P45983) (P45983 whole entry, the tested form may be a part): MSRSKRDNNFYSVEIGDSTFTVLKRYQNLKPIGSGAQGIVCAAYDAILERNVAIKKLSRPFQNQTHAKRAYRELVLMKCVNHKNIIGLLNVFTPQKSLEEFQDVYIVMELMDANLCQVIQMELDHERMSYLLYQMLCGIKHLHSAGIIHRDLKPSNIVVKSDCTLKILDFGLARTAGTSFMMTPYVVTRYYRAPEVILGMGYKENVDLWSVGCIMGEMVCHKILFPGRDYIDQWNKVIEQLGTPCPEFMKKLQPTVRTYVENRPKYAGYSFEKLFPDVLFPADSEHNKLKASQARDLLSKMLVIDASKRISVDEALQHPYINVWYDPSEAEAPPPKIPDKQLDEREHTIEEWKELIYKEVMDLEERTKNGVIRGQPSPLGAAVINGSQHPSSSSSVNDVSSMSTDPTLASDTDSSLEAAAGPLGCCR
Sequence of full-length kinase/Nluc fusion proteins (Homo sapiens, UniProt P30530) (P30530 26-894): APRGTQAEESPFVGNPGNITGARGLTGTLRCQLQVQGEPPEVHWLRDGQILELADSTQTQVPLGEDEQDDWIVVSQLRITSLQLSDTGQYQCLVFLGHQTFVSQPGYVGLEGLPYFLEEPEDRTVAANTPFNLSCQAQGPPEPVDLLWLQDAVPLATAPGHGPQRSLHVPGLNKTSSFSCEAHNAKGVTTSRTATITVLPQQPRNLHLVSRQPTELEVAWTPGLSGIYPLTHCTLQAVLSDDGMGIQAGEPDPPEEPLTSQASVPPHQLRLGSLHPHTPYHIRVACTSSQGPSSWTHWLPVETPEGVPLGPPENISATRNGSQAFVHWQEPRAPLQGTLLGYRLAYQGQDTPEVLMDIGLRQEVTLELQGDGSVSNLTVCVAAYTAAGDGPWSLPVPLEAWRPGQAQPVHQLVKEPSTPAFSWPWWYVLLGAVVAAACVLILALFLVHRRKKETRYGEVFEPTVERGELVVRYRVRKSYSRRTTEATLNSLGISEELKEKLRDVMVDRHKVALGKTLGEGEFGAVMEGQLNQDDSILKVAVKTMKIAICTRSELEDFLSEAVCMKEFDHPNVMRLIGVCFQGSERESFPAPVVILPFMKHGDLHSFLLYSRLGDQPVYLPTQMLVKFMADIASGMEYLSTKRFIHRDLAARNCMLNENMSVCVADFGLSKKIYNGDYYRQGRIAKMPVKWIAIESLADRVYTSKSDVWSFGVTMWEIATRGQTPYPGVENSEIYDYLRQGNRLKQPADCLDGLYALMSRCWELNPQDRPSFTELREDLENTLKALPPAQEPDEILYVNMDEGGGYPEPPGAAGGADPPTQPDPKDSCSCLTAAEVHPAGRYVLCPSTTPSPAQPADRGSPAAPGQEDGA
Sequence of full-length kinase/Nluc fusion proteins (Homo sapiens, UniProt Q9H1R3) (Q9H1R3 whole entry, the tested form may be a part): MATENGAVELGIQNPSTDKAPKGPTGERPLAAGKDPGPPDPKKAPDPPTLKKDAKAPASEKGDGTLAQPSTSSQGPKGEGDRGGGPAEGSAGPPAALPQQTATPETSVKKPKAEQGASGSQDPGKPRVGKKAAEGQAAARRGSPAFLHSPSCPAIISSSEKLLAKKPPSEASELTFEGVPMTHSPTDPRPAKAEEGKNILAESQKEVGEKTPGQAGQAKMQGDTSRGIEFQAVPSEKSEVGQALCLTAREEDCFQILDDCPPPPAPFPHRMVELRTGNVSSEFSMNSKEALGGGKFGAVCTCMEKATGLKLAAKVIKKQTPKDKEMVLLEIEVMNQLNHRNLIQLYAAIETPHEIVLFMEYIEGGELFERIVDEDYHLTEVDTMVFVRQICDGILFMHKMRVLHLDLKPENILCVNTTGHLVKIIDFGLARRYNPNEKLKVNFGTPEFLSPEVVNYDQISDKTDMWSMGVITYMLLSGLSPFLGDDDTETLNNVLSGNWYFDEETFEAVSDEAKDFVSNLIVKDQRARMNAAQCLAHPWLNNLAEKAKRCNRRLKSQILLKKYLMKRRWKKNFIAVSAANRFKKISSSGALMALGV
Sequence of full-length kinase/Nluc fusion proteins (Homo sapiens, UniProt Q96GD4) (Q96GD4 whole entry, the tested form may be a part): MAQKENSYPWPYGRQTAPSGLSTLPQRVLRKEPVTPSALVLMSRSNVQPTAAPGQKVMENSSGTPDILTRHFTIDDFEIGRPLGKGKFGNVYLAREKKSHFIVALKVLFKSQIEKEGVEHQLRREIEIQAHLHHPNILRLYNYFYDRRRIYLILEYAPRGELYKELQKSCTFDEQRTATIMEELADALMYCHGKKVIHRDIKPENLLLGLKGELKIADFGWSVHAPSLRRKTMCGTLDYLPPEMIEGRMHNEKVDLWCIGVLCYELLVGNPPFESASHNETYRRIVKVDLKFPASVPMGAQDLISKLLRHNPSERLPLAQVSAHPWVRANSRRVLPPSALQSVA

As to `CNC(=O)c1ccccc1Nc1nc(Nc2ccc(N3CCN(C(=O)CCOCCOCCOCCOCCNC(=O)CCc4ccc5n4[B-](F)(F)[N+]4=C(c6ccc[nH]6)C=CC4=C5)CC3)cc2)ncc1Cl` [Energy Transfer Probe 5, 2-((2-((4-(4-(1-amino-3,6,9,12-tetraoxapentadecan-15-oyl)piperazin-1-yl)phenyl)amino)-5-chloropyrimidin-4-yl)amino)-N-methylbenzamide-NanoBRET 590], the EC50 (in general, the concentration at which the effect is half-maximal) was more than 1 µM in [1]; 0.4 µM in [2]; more than 1 µM in [3]; 0.4 µM in test [4]; more than 1 µM in [5]; more than 1 µM in [6] (JNK1, Nluc N). Also, the EC50 was 0.3 µM in test [6] (MAPK8, Nluc N); 0.3 µM in test [7]; more than 1 µM in test [8]; more than 1 µM in test [9]; more than 1 µM in test [10]; 0.01 µM in [11]. Also, the EC50 in test [12] was more than 1 µM; in test [13], more than 1 µM; in test [14], more than 1 µM; in test [15], 0.4 µM; in test [16], more than 1 µM; in [17], more than 1 µM. Besides, the EC50 in test [18] is more than 1 µM; in [19], 0.2 µM; in [20], more than 1 µM; in [21] it was more than 1 µM; in test [22], more than 1 µM; in [23], 0.4 µM.
As to `Cc1nc(Nc2ncc(C(=O)Nc3c(C)cccc3Cl)s2)cc(N2CCN(CCOCCNC(=O)CCc3ccc4n3[B-](F)(F)[N+]3=C(c5ccc[nH]5)C=CC3=C4)CC2)n1` [Energy Transfer Probe 6, 2-((6-(4-(2-(2-aminoethoxy)ethyl)piperazin-1-yl)-2-methylpyrimidin-4-yl)amino)-N-(2-chloro-6-methylphenyl)thiazole-5-carboxamide-NanoBRET 590], the EC50 in test [24] is 0.4 µM; in test [25], 0.01 µM; in test [26] it was more than 1 µM; in test [27], more than 1 µM; in test [28] it was 0.2 µM; in [29], more than 1 µM. Also, the figures for the concentration giving a half-maximal response (EC50) in [30], in test [31] and in [32] were 0.1 µM, 0.1 µM and 0.3 µM, respectively.
